Assay results as given in patent US8071612B2, “6-alkenyl and 6-phenylalkyl substituted 2-quinolinones and 2-quinoxalinones as poly(ADP-ribose) polymerase inhibitors” (Janssen Pharmaceutica, NV, priority 2004, dated 2011).

Biological target: T1, PARP-1 enzyme (Homo sapiens, UniProt P09874)
T1 construct: made in house
Assay: In vitro Scintillation Proximity Assay (SPA) for PARP-1 inhibitory activity
Assay type: biochemical
Details: nicked DNA activated PARP-1, [3H]-NAD+, biotinylated histones; read-out: In vitro SPA pIC50 (converted)
Description: Compounds of the present invention were tested in an in vitro assay based on SPA technology (proprietary to Amersham Pharmacia Biotech).
In principle, the assay relies upon the well established SPA technology for the detection of poly(ADP-ribosyl)ation of biotinylated target proteins, i.e histones. This ribosylation is induced using nicked DNA activated PARP-1 enzyme and [^3H]-nicotinamide adenine dinucleotide ([^3H]-NAD^+) as ADP-ribosyl donor.
As inducer of PARP-1 enzyme activity, nicked DNA was prepared. For this, 25 mg of DNA (supplier: Sigma) was dissolved in 25 ml DNAse buffer (10 mM Tris-HCl, pH 7.4; 0.5 mg/ml Bovine Serum Albumine (BSA); 5 mM MgCl2.6H2O and 1 mM KCl) to which 50 μl DNAse solution (1 mg/ml in 0.15 M NaCl) was added. After an incubation of 90 min. at 37° C., the reaction was terminated by adding 1.45 g NaCl, followed by a further incubation at 58° C. for 15 min. The reaction mixture was cooled on ice and dialysed at 4° C. for respectively 1.5 and 2 hours against 1.5 l of 0.2 M KCl, and twice against 1.5 l of 0.01 M KCl for 1.5 and 2 h respectively. The mixture was aliquoted and stored at −20° C. Histones (1 mg/ml, type II-A, supplier: Sigma) were biotinylated using the biotinylation kit of Amersham and stored aliquoted at −20° C. A stock solution of 100 mg/ml SPA poly(vinyl toluene) (PVT) beads (supplier: Amersham) was made in PBS. A stock solution of [^3]H-NAD^+ was made by adding 120 μl of [^3H]-NAD^+ (0.1 mCi/ml, supplier: NEN) to 6 ml incubation buffer (50 mM Tris/HCl, pH 8; 0.2 mM DTT; 4 mM MgCl2). A solution of 4 mM NAD^+ (supplier: Roche) was made in incubation buffer (from a 100 mM stock solution in water stored at −20° C.). The PARP-1 enzyme was produced using art known techniques, i.e. cloning and expression of the protein starting from human liver cDNA. Information concerning the used protein sequence of the PARP-1 enzyme including literature references can be found in the Swiss-Prot database under primary accession number P09874. Biotinylated histones and PVT-SPA beads were mixed and pre-incubated for 30 min. at room temperature. PARP-1 enzyme (concentration was lot dependent) was mixed with the nicked DNA and the mixture was pre-incubated for 30 min. at 4° C. Equal parts of this histones/PVT-SPA beads solution and PARP-1 enzyme/DNA solution were mixed and 75 μl of this mixture together with 1 μl of compound in DMSO and 25 μl of [^3H]-NAD^+ was added per well into a 96-well microtiterplate. The final concentrations in the incubation mixture were 2 μg/ml for the biotinylated histones, 2 mg/ml for the PVT-SPA beads, 2 μg/ml for the nicked DNA and between 5-10 μg/ml for the PARP-1 enzyme. After incubation of the mixture for 15 min. at room temperature, the reaction was terminated by adding 100 μl of 4 mM NAD^+ in incubation buffer (final concentration 2 mM) and plates were mixed.
The beads were allowed to sediment for at least 15 min. and plates transferred to a TopCountNXT™ (Packard) for scintillation counting, values were expressed as counts per minute (cpm). For each experiment, controls (containing PARP-1 enzyme and DMSO without compound), a blank incubation (containing DMSO but no PARP-1 enzyme or compound) and samples (containing PARP-1 enzyme and compound dissolved in DMSO) were run in parallel. All compounds tested were dissolved and eventually further diluted in DMSO. In first instance, compounds were tested at a concentration of 10^−5 M or 10^−6M. […] In each test, the blank value was subtracted from both the control and the sample values. The control sample represented maximal PARP-1 enzyme activity. For each sample, the amount of cpm was expressed as a percentage of the mean cpm value of the controls. When appropriate, IC50-values (concentration of the drug, needed to reduce the PARP-1 enzyme activity to 50% of the control) were computed using linear interpolation between the experimental points just above and below the 50% level. […]

T1 sequence (P09874 whole entry): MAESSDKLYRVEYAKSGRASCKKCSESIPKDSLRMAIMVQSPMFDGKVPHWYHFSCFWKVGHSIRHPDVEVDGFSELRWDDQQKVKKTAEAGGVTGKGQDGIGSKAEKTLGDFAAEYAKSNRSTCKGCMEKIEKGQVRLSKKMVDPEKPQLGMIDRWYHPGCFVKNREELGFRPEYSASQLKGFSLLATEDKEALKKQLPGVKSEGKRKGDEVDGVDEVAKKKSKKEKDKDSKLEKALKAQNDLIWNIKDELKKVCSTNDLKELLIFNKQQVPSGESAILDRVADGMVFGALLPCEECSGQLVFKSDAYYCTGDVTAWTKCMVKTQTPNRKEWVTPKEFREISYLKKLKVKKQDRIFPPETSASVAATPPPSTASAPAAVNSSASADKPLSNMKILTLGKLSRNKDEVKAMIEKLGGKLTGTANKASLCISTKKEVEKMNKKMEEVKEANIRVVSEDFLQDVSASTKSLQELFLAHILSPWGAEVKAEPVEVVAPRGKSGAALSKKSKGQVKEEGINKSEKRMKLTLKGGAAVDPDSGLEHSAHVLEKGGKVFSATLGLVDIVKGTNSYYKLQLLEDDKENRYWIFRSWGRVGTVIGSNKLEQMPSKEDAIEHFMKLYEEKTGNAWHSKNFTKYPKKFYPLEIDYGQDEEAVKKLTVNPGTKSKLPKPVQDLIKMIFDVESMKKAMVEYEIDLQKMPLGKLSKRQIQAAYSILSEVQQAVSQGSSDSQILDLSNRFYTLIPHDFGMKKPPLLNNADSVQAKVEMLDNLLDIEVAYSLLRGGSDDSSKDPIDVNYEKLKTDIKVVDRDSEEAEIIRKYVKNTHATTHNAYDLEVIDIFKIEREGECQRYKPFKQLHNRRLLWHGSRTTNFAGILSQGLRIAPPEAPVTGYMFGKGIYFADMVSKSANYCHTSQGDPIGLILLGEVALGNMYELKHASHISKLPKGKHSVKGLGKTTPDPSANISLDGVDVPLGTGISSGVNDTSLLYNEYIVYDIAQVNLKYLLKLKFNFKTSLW

Row | SMILES | IC50
1 | CCc1cc2cc(C(c3ccc4c(c3)OCCO4)N3CCC(NCCOC)CC3)ccc2[nH]c1=O (centres unmarked) [Compound 33] | 0.0257 µM
2 | CCc1cc2cc(C(c3cccc(OC(F)(F)F)c3)N3CCC(NCCOC)CC3)ccc2[nH]c1=O (centres unmarked) [Compound 34] | 0.525 µM
3 | CCc1cc2cc(C(c3ccc(C(F)(F)F)cc3F)N3CCC(NCCOC)CC3)ccc2[nH]c1=O (centres unmarked) [Compound 35] | 0.802 µM
4 | CCc1cc2cc(C(c3ccc(OCCCN(C)C)cc3)N3CCC(NCCOC)CC3)ccc2[nH]c1=O (centres unmarked) [Compound 36] | 0.299 µM
5 | CCc1cc2cc(C(c3ccc4c(c3)OCCO4)N3CCN(CCN4CCCCC4)CC3)ccc2[nH]c1=O (centres unmarked) [Compound 40] | 0.0237 µM
6 | CCc1cc2cc(C(c3ccc4c(c3)OCO4)n3nc(C4CCNCC4)c4ccc(F)cc43)ccc2[nH]c1=O (centres unmarked) [Compound 42] | 0.948 µM
7 | CCc1cc2cc(C(c3ccc4c(c3)OCCO4)N3CCN(CCN4CCCCCC4)CC3)ccc2[nH]c1=O (centres unmarked) [Compound 43] | 0.0212 µM
8 | CCc1cc2cc(C(NCCN3CCC(C(=O)c4ccc(F)cc4)CC3)c3ccc4c(c3)OCCO4)ccc2[nH]c1=O (centres unmarked) [Compound 44] | 0.0923 µM
9 | O=c1[nH]c2ccc(C(NCCN3CCC(c4n[nH]c5cc(F)ccc45)CC3)c3cccc(C(F)(F)F)c3)cc2c2ccccc12 (centres unmarked) [Compound 47] | 0.516 µM
10 | COCCNC1CCN(C(c2cccc(C(F)(F)F)c2)c2ccc3[nH]c(=O)c4ccccc4c3c2)CC1 (centres unmarked) [Compound 48] | 0.19 µM
11 | CCc1nc2cc(C(NCCCN3CCCCC3)c3ccccc3)ccc2[nH]c1=O (centres unmarked) [Compound 51] | 0.459 µM
12 | CCc1cc2cc(C(OCCN(C)C)c3ccc4c(c3)OCCO4)ccc2[nH]c1=O (centres unmarked) [Compound 55] | 0.0184 µM
13 | CCc1cc2cc(C(NCCCN(C)Cc3ccccc3)c3ccc4c(c3)OCCO4)ccc2[nH]c1=O (centres unmarked) [Compound 57] | 0.0336 µM
14 | CCc1cc2cc(C(c3ccc(Cl)cc3)N3CCN(C)CC3)ccc2[nH]c1=O (centres unmarked) [Compound 60] | 0.296 µM
15 | CCc1cc2cc(C(c3ccc4ccccc4c3)N3CCC(NCCOC)CC3)ccc2[nH]c1=O (centres unmarked) [Compound 61] | 0.276 µM
16 | CCc1cc2cc(C(c3ccc(Cl)c(F)c3)N3CCC(NCCOC)CC3)ccc2[nH]c1=O (centres unmarked) [Compound 63] | 0.361 µM
17 | CCc1cc2cc(C(c3ccc(C)cc3C)N3CCC(NCCOC)CC3)ccc2[nH]c1=O (centres unmarked) [Compound 64] | 0.532 µM

Row | SMILES | IC50
18 | CCc1cc2cc(C(c3ccc(Cl)cc3Cl)N3CCC(NCCOC)CC3)ccc2[nH]c1=O (centres unmarked) [Compound 66] | 0.417 µM
19 | CCc1cc2cc(C(c3ccc(F)cc3)N3CCC(NCCOC)CC3)ccc2[nH]c1=O (centres unmarked) [Compound 67] | 0.208 µM
20 | CCc1cc2cc(C(c3ccc(F)cc3F)N3CCC(NCCOC)CC3)ccc2[nH]c1=O (centres unmarked) [Compound 68] | 0.373 µM
21 | CCc1cc2cc(C(c3cc(C(F)(F)F)ccc3Cl)N3CCC(NCCOC)CC3)ccc2[nH]c1=O (centres unmarked) [Compound 69] | 0.456 µM
22 | CCc1cc2cc(C(c3ccc(C(F)(F)F)cc3)N3CCC(NCCOC)CC3)ccc2[nH]c1=O (centres unmarked) [Compound 70] | 0.762 µM
23 | CCc1cc2cc(C(OCCN(C)C)c3cccc(Cl)c3)ccc2[nH]c1=O (centres unmarked) [Compound 71] | 0.177 µM
24 | CCc1cc2cc(C(c3ccccc3Cl)N3CCC(NCCOC)CC3)ccc2[nH]c1=O (centres unmarked) [Compound 74] | 0.211 µM
25 | CCc1cc2cc(C(c3cccc(Cl)c3)N3CCN(C)CC3)ccc2[nH]c1=O (centres unmarked) [Compound 75] | 0.339 µM
26 | CCc1cc2cc(C(c3ccccc3C)N3CCC(NCCOC)CC3)ccc2[nH]c1=O (centres unmarked) [Compound 82] | 0.356 µM
27 | CCc1cc2cc(C(CCN(C)C)c3ccc4c(c3)OCCO4)ccc2[nH]c1=O (centres unmarked) [Compound 90] | 0.00843 µM
28 | CCc1nc2cc(CC(O)c3ccccc3)ccc2[nH]c1=O (centres unmarked) [Compound 108] | 0.406 µM
29 | CCc1nc2cc(CC(=O)c3ccccc3)ccc2[nH]c1=O [Compound 116] | 0.564 µM
30 | CCc1nc2cc(CC(c3ccc(Cl)cc3)N3CCN(C4CCCCC4)CC3)ccc2[nH]c1=O (centres unmarked) [Compound 117] | 0.71 µM
31 | CCc1nc2cc(CCC(c3ccc(Cl)cc3)n3ccnc3)ccc2[nH]c1=O (centres unmarked) [Compound 118] | 0.869 µM
32 | CCc1nc2cc(CC(c3ccccc3)n3ccnc3)ccc2[nH]c1=O (centres unmarked) [Compound 119] | 0.198 µM
33 | CCc1nc2ccc(CC(c3ccc(Cl)cc3)N3CCC(C(N)=O)CC3)cc2[nH]c1=O (centres unmarked) [Compound 120] | 0.553 µM

Further lines, results first:

Row | IC50 | SMILES
34 | 0.119 µM | CCc1cc2cc(C(c3ccc4c(c3)OCCO4)C3CC[N+](C/C=C/c4ccccc4)(C/C=C/c4ccccc4)CC3)ccc2[nH]c1=O (centres unmarked) [Compound 15]
35 | 0.0213 µM | CCc1cc2cc(C(c3ccc4c(c3)OCCO4)N3CCC(CCN4CCCCC4)CC3)ccc2[nH]c1=O (centres unmarked) [Compound 31]
36 | 0.0746 µM | O=c1[nH]c2ccc(C(NCCCN3CCCCC3)c3cccc(C(F)(F)F)c3)cc2c2ccccc12 (centres unmarked) [Compound 32]
37 | 0.122 µM | CCc1cc2cc(C(c3ccc4c(c3)OCCO4)N3CCN(CC4CCCCC4)CC3)ccc2[nH]c1=O (centres unmarked) [Compound 41]
38 | 0.0456 µM | O=c1[nH]c2ccc(C(NCCN3CCC(c4n[nH]c5cc(F)ccc45)CC3)c3ccc4c(c3)OCCO4)cc2c2ccccc12 (centres unmarked) [Compound 45]
39 | 0.405 µM | CCc1cc2cc(C(c3ccc4c(c3)OCCO4)N3CCC(c4n[nH]c5cc(F)ccc45)CC3)ccc2[nH]c1=O (centres unmarked) [Compound 46]
40 | 0.406 µM | CN(CCCNC(c1cccc(C(F)(F)F)c1)c1ccc2[nH]c(=O)c3ccccc3c2c1)Cc1ccccc1 (centres unmarked) [Compound 49]
41 | 0.678 µM | CCc1nc2cc(C(NCCN3CCC(C(=O)c4ccc(F)cc4)CC3)c3ccccc3)ccc2[nH]c1=O (centres unmarked) [Compound 50]
42 | 0.0546 µM | CCc1cc2cc(C(NCCCN3CCCCC3)c3ccc4c(c3)OCCO4)ccc2[nH]c1=O (centres unmarked) [Compound 52]
43 | 0.152 µM | CCc1cc2cc(C(NC3CCCN(Cc4ccccc4)C3)c3ccc4c(c3)OCCO4)ccc2[nH]c1=O (centres unmarked) [Compound 53]
44 | 0.101 µM | CCc1cc2cc(C(c3ccc4c(c3)OCO4)N3CCC(NCCOC)CC3)ccc2[nH]c1=O (centres unmarked) [Compound 54]
45 | 0.511 µM | CCc1nc2cc(C(NCCCN(C)Cc3ccccc3)c3ccccc3)ccc2[nH]c1=O (centres unmarked) [Compound 56]
46 | 0.582 µM | CCc1nc2cc(C(c3ccccc3)N3CCC(NCCOC)CC3)ccc2[nH]c1=O (centres unmarked) [Compound 58]
47 | 0.217 µM | CCc1cc2cc(C(c3cccc(F)c3)N3CCC(NCCOC)CC3)ccc2[nH]c1=O (centres unmarked) [Compound 59]
48 | 0.312 µM | CCc1cc2cc(C(c3ccccc3F)N3CCC(NCCOC)CC3)ccc2[nH]c1=O (centres unmarked) [Compound 62]
49 | 0.292 µM | CCc1cc2cc(C(c3ccc(N(C)C)cc3)N3CCC(NCCOC)CC3)ccc2[nH]c1=O (centres unmarked) [Compound 65]
50 | 0.124 µM | CCc1cc2cc(C(c3c(Cl)cccc3Cl)N3CCC(NCCOC)CC3)ccc2[nH]c1=O (centres unmarked) [Compound 73]
51 | 0.411 µM | CCc1cc2cc(C(c3cccc4ccccc34)N3CCC(NCCOC)CC3)ccc2[nH]c1=O (centres unmarked) [Compound 76]
52 | 0.498 µM | CCc1cc2cc(C(c3ccc(Cl)c(Cl)c3)N3CCC(NCCOC)CC3)ccc2[nH]c1=O (centres unmarked) [Compound 83]
53 | 0.318 µM | CCc1nc2cc(C(c3ccccc3)N3CCC(=O)CC3)ccc2[nH]c1=O (centres unmarked) [Compound 84]
54 | 0.031 µM | O=CNC(c1cccc(C(F)(F)F)c1)c1ccc2[nH]c(=O)c3ccccc3c2c1 (centres unmarked) [Compound 97]
55 | 0.83 µM | CCc1nc2cc(CC(c3ccc(Cl)cc3)N3CCC(O)(c4ccccc4)CC3)ccc2[nH]c1=O (centres unmarked) [Compound 121]
56 | 0.0571 µM | CCc1cc2cc(/C(=C/CN3CCCCC3)c3ccc4c(c3)OCCO4)ccc2[nH]c1=O [Compound 129]
